Measured values taken from PMC9316017, “Succinimido–Ferrocidiphenol Complexed with Cyclodextrins Inhibits Glioblastoma Tumor Growth In Vitro and In Vivo without Noticeable Adverse Toxicity” (Molecules, 2022).
Where two headings read alike, the source gives them in different places.

What was measured:
[1] = Dissolution of the lyophilized complex in water; format: physicochemical; settings: 25 °C
Description: To investigate the dissolution, an amount (5 mg) of the lyophilized SuccFerr:RAMEßCD complex was suspended in water. The suspension was incubated at 25 °C in a shaking-bath (200 strokes/min, Heito, France). One-milliliter aliquots were taken at various time intervals up to 24 h and centrifuged× 7200g, 5 min, (Denver Instruments, Bohemia, NY, USA). Each supernatant was analyzed by HPLC to assess the drug contents. The results are presented as mean ± SD of triplicate experiments. A dialysis was also realized under magnetic stirring with a 14,000 Da cut-off bag, containing 2 mL of an aqueous solution of 5 mg of SuccFerr:RAMEßCD and 498 mL of distilled water. Aliquots were taken and analyzed as previously described.

[2] = tested on: fifteen molecularly diverse glioblastoma patient-derived cell lines (PDCLs); parameters: method as in PMID 34638742; settings: cited from earlier work

In the case of `O=C1CCC(=O)N1CCCC(=C(c1ccc(O)cc1)c1ccc(O)cc1)[c-]1cccc1.[Fe+2].c1cc[cH-]c1` [SuccFerr, N-[4-ferrocenyl,5-5-bis (4-hydroxyphenyl)-pent-4-enyl]-succinimide], the “dissolution in distilled water” value [1] is listed as “cannot be dissolved and was undetectable”, the “IC50 ratio (highest/lowest)” value [2] is listed as “≈ 3000” and the IC50 ([2]; read-out: highest IC50 across the PDCLs) is listed as roughly 30 µM. For the same compound, the IC50 ([2]; read-out: lowest IC50 across the PDCLs) was 0.01 µM.
